Test results reported in patent US6656963B2, “Indole-3-carbinol (I3C) derivatives and methods” (The Regents of the University of California, priority 1997, dated 2003).
pIC50, pKd: −log10 of the molar value. Entries after “also recorded” stand apart in the source; their conditions may differ. Where two headings read alike, the source gives them in different places.

Legend:
[1] = system: estrogen receptor-deficient MDA-MB-231 breast cancer cells; experiment: [3H]thymidine incorporation in estrogen receptor-deficient breast cancer cells; type: cell-based, human; conditions: for growth inhibitory effect: 48 hours, 100 μM I3C, 10 μM tamoxifen, alone or combined
Method: (§1) I3C effects on estrogen receptor (ER) function was monitored by transient transfection of an ERE-vit-CAT reporter plasmid containing the vitellogenin promoter with three estrogen response elements linked upstream and driving the bacterial chloramphenicol acetyl transferase (CAT) gene.
(§2) Antiproliferative effects of a combination of I3C and the anti-estrogen tamoxifen on breast cancer cell growth: Estrogen receptor (ER)-containing MCF7 or ER-deficient MDA-MB-231 breast cancer cells were treated for 48 hours with 100 μM I3C or 10 μM tamoxifen alone or with a combination of both reagents, and [^3H]thymidine incorporation used as a measure of cell proliferation.

estrogen receptor (ER) = experiment: ERE-vit-CAT reporter plasmid activity in transiently transfected MCF7 cells; type: cell-based, human; conditions: 48 hours; for effect on ERE-vit-CAT activity: estrogen 100 nM
Method: Cancer cells are also treated with combinations of indole-derivatives and either steroidal or nonsteroidal anti-estrogens, such as tamoxifen, ICI 164384 and raloxifene (39, 52), at both suboptimal and optimal doses to determine the ability of a given I3C derivative to syngerize with the anti-estrogens in the growth suppression response. […] For example, MCF7 cells are transiently transfected with the ERE-vit-CAT reporter plasmid, which contains three estrogen responsive elements, and the cells monitored for changes in estrogen regulated CAT activity. For comparison, the effects of the I3C derivatives on growth of the estrogen-non-responsive MDA-MB-231 breast cell line are examined. […] Therefore, purified indole derivatives is also assayed in MCF7 cells for Ah receptor affinity, activation of Ah receptor binding to DNA, and activation of an Ah receptor-responsive CAT reporter (17).
as §1

MCF-7 cells = experiment: Flow cytometry of nuclear DNA content (propidium iodide), cell cycle arrest; type: cell-based, human; conditions: for percentage of MCF7 cells arrested in G1: I3C, tamoxifen alone or combined
Method: (§3) Particularly suitable assays for I3C derivatives include evaluating their ability to induce a G1 cell cycle arrest and to inhibit CDK6 protein levels in cultured MCF7 breast cancer cells. For the cell proliferative asssays, we have sucessfully employed several methods that we have previously described for rodent mammary tumor cells (44, 51). Briefly, human MCF7 breast cancer cells are cultured at subconfluency in medium supplemented with 10% fetal bovine serum and […] insulin. […] The incorporation of [^3H]thymidine (in a two hour pulse) into 10% trichloroacetic acid precipitable material are used to monitor and quantitate DNA synthesis and provides a direct measure of the proliferative state of the cells.
To assess the cell cycle effects of I3C, MCF-7 cells treated with or without 100 μM I3C for 96 hours were hypotonically lysed in the presence of propidium iodide to fluorescently stain the nuclear DNA.
as §2

CDK6 [2] = experiment: Western and Northern blot of CDK6 in treated breast cancer cells; type: cell-based, human; conditions: for level of CDK6 protein (Western blot): cells treated with combinations of I3C and/or tamoxifen
Method: For example, I3C derivatives may be analyzed by western blot to determine the level of CDK6 protein produced in treated or untreated human MCF7 breast cancer cells. In particular, cells are treated with varying concentrations, varying times alone or in the presence of particular sets of anti-estrogens; treatment with I3C may be used as a positive control. The cell extracts are then electrophoretically fractionated in SDS polyacrylamide gels, blotted onto nitrocellular membranes, the blotted proteins probed with CDK6 antibodies and the CDK6 protein visualized by autoradiography. […] For example, the levels of the other cyclin dependent kinases (CDK2 and CDK4), cell cycle activators (cyclin D 1, D2, D3 and E) or cell cycle inhibitors (p 15, 16, p21 or p27) that function at discrete times within G1 may be assessed in indole treated or untreated MCF7 breast cancer cells.
To determine the mechanism by which I3C induces the G1 cell cycle arrest of human breast cancer cells, Western blot and Northern blot analyses were utilized to examine whether I3C treatment regulates the protein production and transcript expression of the cyclin dependent protein kinases (CDKs), cyclins and CDK Inhibitor components of the cell cycle that function within the G1 phase.

cyclin D1 = conditions: estrogen responsive breast cancer cells; cited from earlier work
cell growth = experiment: Inhibition of cell growth; type: cell-based
[3] = system: MCF7 human breast cancer cells; experiment: cells; conditions: for cell proliferation: 48 hours
Method: as §3, §2

Ah (dioxin) receptor = conditions: cited from earlier work
[4] = system: 7,12-dimethyl-benz(α)anthracene (DMBA)-induced mammary tumors; conditions: cited from earlier work
CDK2 = experiment: Western/Northern blot of CDK2 expression; type: cell-based, human; conditions: same conditions as CDK6 reduction
Method: (§4) Our finding that I3C inhibits the protein levels of the CDK6 cell cycle component provides a unique molecular assay to determine the ability of a given I3C derivative to induce a cell cycle arrest of cancer cells. For example, I3C derivatives may be analyzed by western blot to determine the level of CDK6 protein produced in treated or untreated human MCF7 breast cancer cells. In particular, cells are treated with varying concentrations, varying times alone or in the presence of particular sets of anti-estrogens; treatment with I3C may be used as a positive control. The cell extracts are then electrophoretically fractionated in SDS polyacrylamide gels, blotted onto nitrocellular membranes, the blotted proteins probed with CDK6 antibodies and the CDK6 protein visualized by autoradiography. Other G1 acting cell cycle genes maybe examined to confirm that a given I3C derivative is acting similarly to I3C itself. For example, the levels of the other cyclin dependent kinases (CDK2 and CDK4), cell cycle activators (cyclin D 1, D2, D3 and E) or cell cycle inhibitors (p 15, 16, p21 or p27) that function at discrete times within G1 may be assessed in indole treated or untreated MCF7 breast cancer cells. […]

CDK4 = experiment: Western/Northern blot of CDK4 expression; type: cell-based, human; conditions: same conditions as CDK6 reduction
Method: as §4

CDK6 [5] = experiment: CDK6 protein expression in estrogen receptor negative cell lines; type: cell-based
Method: To determine the mechanism by which I3C induces the G1 cell cycle arrest of human breast cancer cells, Western blot and Northern blot analyses were utilized to examine whether I3C treatment regulates the protein production and transcript expression of the cyclin dependent protein kinases (CDKs), cyclins and CDK Inhibitor components of the cell cycle that function within the G1 phase. […] In particular, CDK6 transcript levels dropped about 30% in 5 hrs and 60% by 15 hours. […] Furthermore, 13C inhibits CDK6 protein expression in estrogen receptor negative cell lines. […] This novel observation provides a basis for a molecular diagnostic assay to determine the sensitivity of a given tumor sample to I3C growth suppression.

p21 cell cycle inhibitor = experiment: Western blot of p21 cell cycle inhibitor level; type: cell-based, human; conditions: only after 72-96 hours of treatment
Method: Western blot analysis has shown that I3C stimulates the level of the p21 cell cycle inhibitor by approximately 3-4 fold only after 72-96 hours of indole treatment, which is when the cells begin to display their maximal cell cycle arrest. This response is not likely to initiate the cell cycle arrest, though provides another useful molecular marker to in the examination of tissue biopsies.

[6] = system: DMBA-induced mammary tumors; conditions: administered prior to and during DMBA treatment; cited from earlier work
[7] = system: methylnitrosourea-induced mammary tumors; conditions: administered prior to and during methylnitrosourea treatment; cited from earlier work
[8] = system: spontaneous mammary tumors; conditions: cited from earlier work
[9] = system: estradiol 2-hydroxylation; conditions: oral, around 500 mg daily for one week, men and women; cited from earlier work
[10] = system: human MCF7 breast cancer cells; conditions: 50 μM, long term treatment (up to six weeks), high density cultures; cited from earlier work
[11] = gastric acid; cited from earlier work

For `CC/C(=C(\c1ccccc1)c1ccc(OCCN(C)C)cc1)c1ccccc1` [tamoxifen], the growth inhibitory effect [1] was “no growth inhibitory effects”, the “inhibition of basal ERE-vit-CAT reporter plasmid activity” value (estrogen receptor (ER); 10% fetal bovine serum) was 70% and the “percentage of MCF7 cells arrested in G1” value (MCF-7 cells) was 70%. The “level of CDK6 protein (Western blot)” value (CDK6 [2]) was “not” and the “cyclin D1 levels” value (cyclin D1) was “reduces”.

In the case of estrogen, the “effect on ERE-vit-CAT activity” value (estrogen receptor (ER)) was “stimulated”.

With `CC(=O)OCc1cn(C(C)=O)c2ccccc12` [N,O-diacetyl-indole-3-carbinol] the “inhibition of cell growth” value (cell growth) was “particularly effective inhibitors of cell growth”.

In the case of `c1ccc2c(Cc3c[nH]c4ccccc34)c[nH]c2c1` [DIM, 3,3′-diindolylmethane], the “suppression of MCF7 cell growth” value ([3]; acid products of I3C) is given as “do not suppress growth; also recorded: failed to suppress the growth”, the pKd (Ah (dioxin) receptor) is given as 7.05 and the “reduction of DMBA-induced mammary tumors” value ([4]; in vivo) is given as “highly effective”.

For `OCc1c[nH]c2ccccc12` [Compound I3C, Indole-3-carbinol], the cell morphology ([3]; 100 μM) was “no morphology change”, the cell proliferation ([3]; 100 μM) was “near maximally growth arrested” and the cell morphology ([3]; 300 μM) was “changed to a more elongated phenotype”. The cell proliferation ([3]; 300 μM) was “maximally inhibited”, the pIC50 ([3]; Homo sapiens, MCF7, read-out: half-maximal response, inhibition of [3H]thymidine incorporation) was 4.52 and the inhibition at 100 µM ([3]; Homo sapiens, MCF7, read-out: inhibition of MCF7 DNA synthesis ([3H]thymidine incorporation) compared to vehicle controls, 48 hours, 100 μM I3C, 10 μM tamoxifen, alone or combined) was about 70%. For the same molecule, the inhibition at 100 µM ([3]; Homo sapiens, MCF7, read-out: inhibition of [3H]thymidine incorporation, 100 μM, after 72 hours) was 80%, the inhibition at 100 µM ([3]; Homo sapiens, MCF7, read-out: inhibition of [3H]thymidine incorporation, 100 μM, after 96 hours) was over 90% and the cell death ([3]; prolonged exposure (5 days)) was “did not result in any detectable cell death”. For the same molecule, the “reversibility of growth suppression” value ([3]; time course of addition and withdrawal) was “completely reversible”, the “rate of [3H]thymidine incorporation after withdrawal” value ([3]; within 48 hours of withdrawal from 48 or 72 hour treated cells) was “approximately equivalent to untreated cells” and the growth inhibitory effect [1] was “strong growth suppression effect”. The inhibition at 100 µM ([1]; Homo sapiens, MDA-MB-231, 100 μM, read-out: inhibition of proliferation ([3H]thymidine incorporation)) was over 50%, the “effect on ERE-vit-CAT activity” value (estrogen receptor (ER)) was “no effect” and the “cells remaining with G2/M DNA content” value (MCF-7 cells; 100 μM, 96 hours) was “approximately 13%”. The “cells with 2n DNA content (G1 block)” value (MCF-7 cells; 100 μM, 96 hours) was 75%, the “percentage of MCF7 cells arrested in G1” value (MCF-7 cells) was 75% and the “time of indole treatment to reduced level of CDK6 protein” value (CDK6 [2]; 48 hours prior to complete cell cycle arrest) was at most 24 h. For the same molecule, the “drop of CDK6 transcript levels” value (CDK6 [2]; by 15 hours) was about 60%, the “level of CDK6 protein (Western blot)” value (CDK6 [2]) was “reduced the level of CDK6 protein” and the “drop of CDK6 transcript levels” value (CDK6 [2]; in 5 hrs) was “about 30%”. The “effect on CDK2 expression” value (CDK2) was “no effect”, the “effect on CDK4 expression” value (CDK4) was “no effect” and the CDK6 protein expression (CDK6 [5]) was “inhibits”. The “stimulation of p21 level” value (p21 cell cycle inhibitor) was 3-4 fold, the pKd (Ah (dioxin) receptor) was 4.57 and the “reduction of incidence of DMBA-induced mammary tumors” value ([4]; in the diet or by oral intubation prior to carcinogen) was 70-80%. For the same molecule, the “reduction of mammary tumor incidence” value [6] was at most 95%, the “reduction of mammary tumor incidence” value [7] was at most 65% and the “reduction of spontaneous mammary tumor incidence and multiplicity” value ([8]; diets with 500 or 2000 p.p.m., both doses) was “ca. 50%”. The tumor latency ([8]; high dose group) was “prolonged”, the “increase in estradiol 2-hydroxylation” value [9] was “approximately 50%” and the estradiol-induced proliferation [10] was “blocked”. For the same molecule, the “stability in acidic solution” value [11] was “extremely unstable”.
